Results on 16 molecules are retold here after PubChem BioAssay (NCI).

Several values for one entry are separate records, joined by “and”; a condition that tells them apart may be missing. Identical values can stand only once.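 Following 48 hours of exposure in 96-well plates, responses at five concentrations were used to interpolate endpoints linearly. GI50 marks 50% less growth. Definition used: TGI = concentration required for complete inhibition of growth.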

What all share (experiment): inhibition of tumour cell growth, NCI panel, 48 h
Assay [1] relates to T-47D breast.
The subject of assay [2] is BT-549 breast.
The subject of assay [3] is NCI-H460 lung.
For assay [4], the system named is HL-60(TB) leukemia.
Assay [5] relates to A498 renal.
The test system of assay [6] is NCI-H522 lung.
For assay [7], the system named is NCI-H226 lung.
Assay [8] concerns OVCAR-3 ovarian.
Assay [9] has as its system NCI/ADR-RES ovarian.
The subject of assay [10] is MDA-MB-231 breast.

Consider `O=C1C(=O)c2ccccc2C(O)=C1CCCc1ccc(C2CCCCCC2)cc1`, for which the GI50 in assay [1] was 3.46 µM; in assay [2], 1.14 µM; in assay [3] it was 0.361 µM; in assay [4] it was 0.698 µM; in assay [5], 0.349 µM; in [6], 2.64 µM. Moreover, the GI50 in assay [7] is 2.2 µM; in assay [8], 0.781 µM; in assay [9], 0.702 µM; in assay [10], 5.76 µM. In addition, the TGI in assay [1] is > 45.8 µM; in assay [2], 19.5 µM; in [3], 13.4 µM; in assay [4] it was 11.1 µM; in assay [5] it was 13.1 µM; in assay [6] it was 32.7 µM. The TGI was found to be 31.7 µM in [7], 16.3 µM in assay [8], 11.9 µM in assay [9] and 42.2 µM in assay [10].
`COc1cc(N2CCN(C(C)C)CC2)ccc1Nc1nc(Nc2cccc(F)c2C(=O)O)c2cc[nH]c2n1`: the GI50 in assay [1], in [2], in assay [3], in assay [4], in assay [5] and in [6] was > 25 µM in each case. Moreover, the GI50 in assay [7], in assay [8], in [9] and in assay [10] was > 25 µM throughout. The TGI in assay [1], in assay [2], in assay [3], in assay [4], in assay [5] and in [6] was > 25 µM each time. For the same molecule, the TGI in assay [7], in assay [8], in assay [9] and in assay [10] was > 25 µM each time.
Take `Cc1[nH]c(-c2nc3ccccc3[nH]2)c(C)c1C(=O)NC(C)C1CCCCC1` (stereo not given): the GI50 in assay [1] was 12.4 µM; in assay [2] it was 10.7 µM; in [3], 14.4 µM; in assay [4] it was 3.36 µM; in [5], 7.71 µM; in assay [6] it was 13.2 µM. The GI50 is 13.9 µM in assay [7], 9.72 µM in [8], 10.2 µM in [9] and 10.4 µM in [10]. For the same molecule, the TGI in [1] is 39.2 µM; in [2], 23.2 µM; in [3], 32 µM; in assay [4] it was 13.1 µM; in assay [5] it was 20.1 µM; in assay [6], 44 µM. The TGI in assay [7] is 37.3 µM; in assay [8], 21.6 µM; in assay [9], 28 µM; in assay [10], 29.4 µM.
As to `C=C(CC(=O)O)C(=O)O` (tested in a mixture with another compound), the GI50 in assay [1] is > 50 µg/mL; in assay [2], > 50 µg/mL; in assay [3], > 50 µg/mL; in [4], 8.94 µg/mL; in assay [5] it was > 50 µg/mL; in assay [6] it was > 50 µg/mL. Moreover, the GI50 in assay [7], in assay [8], in assay [9] and in [10] was > 50 µg/mL each time. For the same molecule, the TGI in assay [1] is > 50 µg/mL; in assay [2], > 50 µg/mL; in [3], > 50 µg/mL; in assay [4] it was 17.2 µg/mL; in assay [5] it was > 50 µg/mL; in assay [6] it was > 50 µg/mL. The TGI in [7], in [8], in assay [9] and in assay [10] was > 50 µg/mL in each case.
For the molecule `C/C(=N\N=C(\[Se])N(C)C)c1ccccn1`, the TGI came to 32.3 µM in assay [1]; 21.4 µM in assay [2]; 4.17 µM in assay [3]; 0.343 µM in assay [4]; 9.94 µM in assay [5]; 0.975 µM in assay [6]. In addition, the TGI came out at 5.27 µM in [7], 11.8 µM in assay [8], 1.67 µM in assay [9] and 30.7 µM in assay [10].
As for `CCN(CC)CCN(Cc1ccc(F)cc1)c1ccc(CO)c(Cl)c1`, the GI50 is 7.05 µM in [1]; > 89.6 µM in assay [2]; 1.17 µM in assay [3]; 23.1 µM in [4]; 1.55 µM in [5]; 27.9 µM in assay [6]. In addition, the GI50 is 0.235 µM in [7], 14 µM in [8], 9.64 µM in assay [9] and 12.2 µM in assay [10]. For the same molecule, the TGI was > 62.6 µM in [1]; > 100 µM in assay [2]; 3.97 µM in [3]; > 58.5 µM in assay [4]; 3.18 µM in assay [5]; 68.2 µM in [6]. The TGI in assay [7] stood at 0.713 µM; in assay [8], 35.9 µM; in [9], 50.2 µM; in assay [10] it was 54.2 µM.
As to `COc1ccc2c(Cl)cc(NC(=O)Nc3c(C)cccc3C)nc2c1`, the GI50 was 22.5 µM in [1]; 36 µM in [2]; 4.02 µM in assay [3]; > 100 µM in assay [4]; 2.9 µM in [5]; > 100 µM in assay [6]. Also, the GI50 in [7] is 2.29 µM; in assay [8], 23.5 µM; in [9], > 100 µM; in assay [10], 13.3 µM. Moreover, the TGI in [1] was > 100 µM; in [2] it was > 100 µM; in assay [3] it was > 100 µM; in assay [4], > 100 µM; in assay [5], 22.4 µM; in [6], > 100 µM. Also, the TGI is 6.14 µM in [7], > 100 µM in [8], > 100 µM in assay [9] and > 100 µM in [10].
As for `COc1cccc2c1C(=O)c1c(O)c3c(c(O)c1C2=O)C[C@@](O)(C(=O)CO)CC3OC1CC(O)C(O)C(C)O1` (stereo not given in full), the TGI came to 5.44 µM in assay [1]; 1.47 µM in [2]; 1.8 µM in assay [3]; 0.55 µM in [4]; 1.29 µM in assay [5]; 1.5 µM in assay [6]. For the same molecule, the TGI in assay [7] came out at 0.219 µM; in assay [8] it was 11.3 µM; in [9], 12.5 µM; in assay [10], 6 µM.
For the molecule `COc1cc(-c2cc(/C=C/C(=O)c3ccc(Cl)c(Cl)c3)[nH]n2)cc(OC)c1OC`, the GI50 in assay [1] was 1.66 µM; in [2], 8.4 µM; in assay [3], 4.91 µM; in assay [4], 7.18 µM; in [5], 5.89 µM; in assay [6], 1.33 µM. The GI50 in [7] was 18.6 µM; in [8], 6.99 µM; in assay [9], 10.6 µM; in [10] it was 8.65 µM. Moreover, the TGI was determined as 15.7 µM in assay [1]; 29.2 µM in assay [2]; 36.6 µM in assay [3]; 36.7 µM in assay [4]; 43 µM in assay [5]; 3.04 µM in assay [6]. Also, the TGI in assay [7] is > 100 µM; in assay [8], 37.8 µM; in [9], > 100 µM; in assay [10], > 100 µM.
Turning to `Cc1cc2nc3cc(C)c(N)cc3[n+](-c3ccccc3)c2cc1N`, the GI50 was 1.8 µM in assay [1]; 2.64 µM in [2]; 3.57 µM in assay [3]; 4.92 µM in assay [4]; 54.8 µM in assay [5]; 3.73 µM in assay [6]. Further, the GI50 in assay [7] is 6.23 µM; in assay [8], 2.98 µM; in assay [9], > 100 µM; in assay [10] it was 20.5 µM. Besides, the TGI in assay [1] is 19.9 µM; in assay [2] it was 18.8 µM; in assay [3] it was 19.7 µM; in [4] it was > 100 µM; in assay [5], > 100 µM; in assay [6] it was > 41 µM. Moreover, the TGI in assay [7] is > 69.4 µM; in assay [8] it was > 95.7 µM; in assay [9], > 100 µM; in assay [10] it was > 100 µM.
Consider `CN1CCN(Cc2ccc(NC(=O)c3cncc(C#Cc4cncc5nccnc45)c3)cc2C(F)(F)F)CC1`, for which the GI50 was 5.61 µM in assay [1]; 5.27 µM in assay [2]; 2.21 µM in assay [3]; 0.342 µM in assay [4]; 0.772 µM in assay [5]; 3.17 µM in assay [6]. The GI50 in assay [7] was 0.628 µM; in [8] it was 4.95 µM; in [9], 6.68 µM; in [10], 0.869 µM. The TGI in [1] turned out to be 14.9 µM; in assay [2], 11.2 µM; in assay [3], 8.46 µM; in [4], 4.76 µM; in [5] it was 3.22 µM; in assay [6], 10.8 µM. The TGI in assay [7] is > 50 µM; in [8], 15.1 µM; in assay [9], 25.1 µM; in assay [10] it was 4.59 µM.
Regarding `Cc1cc(C(=O)O)c(C)n1-c1cccc(C(=O)O)c1`, the GI50 in assay [1], in [2], in [3], in assay [4], in assay [5] and in assay [6] was > 100 µM in each case. In addition, the GI50 in [7], in assay [8], in [9] and in [10] was > 100 µM each time. For the same molecule, the TGI in assay [1], in assay [2], in [3], in [4], in assay [5] and in assay [6] was > 100 µM each time. Moreover, the TGI in [7], in assay [8], in assay [9] and in assay [10] was > 100 µM throughout.
`C[n+]1c(-c2ccc(/C=N/NC(=O)c3ccc(C(=O)N/N=C/c4ccc(-c5cn6ccccc6[n+]5C)cc4)cc3)cc2)cn2ccccc21`: the GI50 in assay [1] was 372 µM; in assay [2], 874 µM; in [3] it was > 1000 µM; in [4] it was 2.37 µM; in assay [5], 172 µM; in [6], 186 µM. For the same molecule, the GI50 in [7] was 124 µM; in assay [8] it was > 1000 µM; in assay [9] it was 553 µM; in assay [10], 119 µM. The TGI in assay [1] was 928 µM; in [2], > 1000 µM; in [3], > 1000 µM; in [4], 186 µM; in assay [5] it was 70.8 µM and 309 µM; in assay [6] it was 326 µM. Besides, the TGI is 283 µM in assay [7], > 1000 µM in [8], > 1000 µM in assay [9] and 242 µM in assay [10].
In the case of `N=C(N)c1ccc(NCCOCCNc2ccc(C(=N)N)cc2)cc1`, the GI50 in assay [1] was 7.17 µM; in [2] it was 34.9 µM; in assay [3] it was 2.94 µM; in assay [4], 60.9 µM; in assay [5] it was 17 µM; in assay [6] it was 29.8 µM. For the same molecule, the GI50 in assay [7] was 13.3 µM; in [8] it was 69.1 µM; in [9], 78.5 µM; in assay [10] it was > 100 µM. The TGI in assay [1] is 75.6 µM; in assay [2] it was > 100 µM; in [3], > 100 µM; in [4], > 100 µM; in assay [5], 94.6 µM; in [6] it was > 100 µM. Further, the TGI in [7], in [8], in assay [9] and in [10] was > 100 µM throughout.
With `COC(=O)C(CBr)CBr`, the TGI in assay [1] was 7.22 µM; in assay [2], 6.58 µM; in assay [3], 33.1 µM; in [4], 1.41 µM; in assay [5], 31.8 µM; in [6], 4.76 µM. Moreover, the TGI in assay [7] came to 28.1 µM; in assay [8] it was 7.09 µM; in assay [9], 8.45 µM; in assay [10] it was 4.36 µM.
As to `CCC(=O)Nc1ccccc1C#C/C=C\C#Cc1ccccc1C(F)(F)F`, the GI50 in [1] was 6.04 µM; in assay [2], 2.21 µM; in assay [3], 1.63 µM; in assay [4], 1.18 µM; in assay [5], 1.68 µM; in [6], 1.33 µM. Besides, the GI50 in assay [7] was 6.91 µM; in assay [8], 2.4 µM; in assay [9], 1.48 µM; in [10], 3.13 µM. For the same molecule, the TGI in [1] was > 38.9 µM; in assay [2], 32.5 µM; in assay [3] it was 5.88 µM; in [4], > 10.4 µM; in [5], 10.7 µM; in assay [6] it was 6.09 µM. Also, the TGI in [7] is > 50 µM; in assay [8], 11.2 µM; in assay [9] it was 9.95 µM; in assay [10], > 29.3 µM.
